Measurements from article PMC6270001, “Synthesis and Antiviral Activity of N-Phenylbenzamide Derivatives, a Novel Class of Enterovirus 71 Inhibitors” (Molecules, 2013).

What was measured:
[1] = test system: EV 71 strain SZ-98 (genotype C4); assay: Anti EV 71 activity assay (CPE, Reed & Muench) in Vero cells, strain SZ-98; type: cell-based, Enterovirus 71; details: for IC50: EV 71 strain SZ-98, Vero cells, 100 TCID50, CPE, average ± SD, n=3; for SI SZ-98: selectivity index TC50/IC50, strain SZ-98, "-" stands for no antiviral selectivity
Protocol: (§1) The EV 71 was divided into three genotypes A, B and C based on nucleotide sequence comparisons, and genotypes B and C were subdivided into B1-B5 and C1-C5 [6, 10]. Genotype C is the most common genotype found in mainland China, especially the C4 subgenotype. Consequently, the intermediate compounds 1a, 1c and 1e, and the final products 2a–c, 3a–g, and 5a–f were evaluated for their anti-EV 71 activity in Vero cells against genotypes C4 (strains SZ-98 and JS-52-3), C2 (strain H) and A (strain BrCr). […] The IC50 values were calculated by the Reed and Muench method, and the cytotoxicity was monitored by the CPE method.
(§2) Vero cells were purchased from the American Type Culture Collection and cultured in Minimum Essential Medium (MEM) supplemented with 10% Fetal Bovine Serum (FBS) and antibiotics (100 U/mL penicillin G, 100 μg/mL streptomycin). Enterovirus 71 (EV 71) strain SZ-98 was kindly provided by Dr. Qi Jin, Institute of Pathogen Biology, Chinese Academy of Medical Science and Peking Union Medical School. Enterovirus 71 (EV 71) strain BrCr (VR-1775) was purchased from the American Type Culture Collection. Enterovirus 71 (EV 71) strain JS-52-3 was kindly provided by Dr. Xiang-zhong Ye, Beijing Wantai Biological Pharmacy Enterprise Co., Ltd. All Enterovirus 71 strains were propagated in Vero cells.
(§3) All compounds were dissolved in DMSO at 20 mg/mL as a stock solution and further diluted in culture medium prior to use. The initial concentration in all cytotoxicity assay was 200 µg/mL, and inhibition assay for anti-EV71 experiments was from maximum non-toxic concentration, and proceeded serially 3-fold dilution with culture medium. All cytotoxicity and activity assay for each compound was repeated for three times, and the data was indicated as average ± SD.
(§4) Confluent Vero cells grown in 96-well microplates were infected respectively with 100 median tissue culture infective dose (TCID50) EV 71. After 1 h adsorption at 37 °C, the monolayers were washed by PBS and incubated at 37 °C in the maintenance medium with or without different concentrations of test compounds.

Vero cells = assay: Cytotoxicity determination in Vero cells monitored by cytopathic effect (CPE); type: cell-based; details: 48 h, Reed & Muench, concentration that inhibits 50% cellular growth, average ± SD, n=3
Protocol: as §2, with “Enterovirus 71 (EV 71) strain BrCr (VR-1775) was purchased from the American Type Culture Collection.” left out
as §3
The cytotoxicity of compounds in the presence of Vero cells was monitored by cytopathic effect (CPE). Vero cells (2.5 × 10^4/well) were plated into a 96-well plate. A total of 24 h later, the monolayer cells were incubated in the presence of various concentrations of test compounds. […] The median toxic concentration (TC50) was calculated by Reed & Muench analyses.

[2] = test system: EV 71 strain JS-52-3 (genotype C4); assay: Anti EV 71 activity assay (CPE, Reed & Muench) in Vero cells, strain JS-52-3; type: cell-based, Enterovirus 71; details: for IC50: EV 71 strain JS-52-3, Vero cells, 100 TCID50, CPE, average ± SD, n=3; for SI JS-52-3: selectivity index TC50/IC50, strain JS-52-3, "-" stands for no antiviral selectivity
Protocol: as §1, §2, §3, §4

[3] = test system: EV 71 strain H (genotype C2); assay: Anti EV 71 activity assay (CPE, Reed & Muench) in Vero cells, strain H; type: cell-based, Enterovirus 71; details: for IC50: EV 71 strain H (C2 genotype), Vero cells, 100 TCID50, CPE, average ± SD, n=3; for SI H: selectivity index TC50/IC50, strain H, "-" stands for no antiviral selectivity
Protocol: as §1, §2, §3, §4

[4] = test system: EV 71 strain BrCr (genotype A); assay: Anti EV 71 activity assay (CPE, Reed & Muench) in Vero cells, strain BrCr; type: cell-based, Enterovirus 71; details: for IC50: Enterovirus A, Vero, EV 71 strain BrCr, Vero cells, 100 TCID50, CPE, average ± SD, n=3; for SI BrCr: selectivity index TC50/IC50, strain BrCr, "-" stands for no antiviral selectivity
Protocol: as §1, §2, §3, §4

[5] = test system: EV 71 strains SZ-98, JS-52-3, H, BrCr; assay: Anti EV 71 activity assay in Vero cells, summary over the four strains tested; type: cell-based, Enterovirus 71; details: TC50/IC50, range over the EV 71 strains tested
Protocol: as §1, §2, §3, §4

Row | IC50 ([1]; Enterovirus A, Vero) [µM] | IC50 ([2]; Enterovirus A, Vero) [µM] | IC50 ([3]; Enterovirus A, Vero) [µM] | IC50 [4] [µM] | melting point [°C] | IC50 [3] [µM] | IC50 [2] [µM] | SMILES | TC50 (Vero cells) [µM] | SI JS-52-3 [2] | SI H [3] | SI BrCr [4] | selectivity index (SI) values (range over strains) [5] | SI SZ-98 [1] | IC50 [1] [µM]
1 | 350 ± 24 | 160 ± 7.9 | 190 ± 14 | 160 ± 12 |  |  |  | COc1ccc(C(=O)Nc2ccccc2)cc1N [Compound 1a] | >820 | 5.2 | 4.3 | 5.2 |  |  | 
2 | ~15 | 46 ± 5.7 | 34 ± 3.6 | 56 ± 4.2 | 152 to 154 |  |  | COc1ccc(C(=O)Nc2ccc(Cl)cc2)cc1N [Compound 1c, 3-Amino-N-(4-chlorophenyl)-4-methoxybenzamide] | 520 ± 29 | 12 | 16 | 10 | 10–36 | 36 | 
3 | 12 ± 1.1 | 9.8 ± 0.4 | 5.7 ± 0.8 | 9.1 ± 1.4 | 190 to 192 |  |  | COc1ccc(C(=O)Nc2ccc(Br)cc2)cc1N [Compound 1e, 3-Amino-N-(4-bromophenyl)-4-methoxybenzamide] | 620 ± 0.0 | 64 | 110 | 68 | 51–110 | 51 | 
4 | > 630 | 160 ± 5.7 | 18 ± 1.2 | > 630 |  |  |  | COc1ccc(C(=O)Nc2ccccc2)cc1NC(=O)C(C)F (stereo not drawn) [Compound 2a] |  | >3.9 | >35 |  |  |  | 
5 | 110 ± 12 | 34 ± 2.8 | 41 ± 2.9 | 90 ± 9.5 | 142 to 143 |  |  | COc1cc(C(=O)Nc2ccccc2)ccc1NC(=O)C(C)F (stereo not drawn) [Compound 2c, 4-(2-Fluoropropanamido)-3-methoxy-N-phenylbenzamide] | >630 |  | >16 | >7.0 |  | >5.8 | 
6 | > 260 | 260 | 260 | 180 ± 14 | 170 to 172 |  |  | CNc1cc(C(=O)Nc2ccccc2)ccc1OC [Compound 3a, 4-Methoxy-3-methylamino-N-phenylbenzamide] | 780 ± 0.0 | 3.0 | 3.0 | 4.3 |  |  | 
7 | 73 ± 8.6 | 42 ± 3.1 | 31 ± 4.3 | 50 ± 3.8 | 160 to 162 |  |  | COc1ccc(C(=O)Nc2ccc(Cl)cc2)cc1N(C)C [Compound 3b, N-(4-Chlorophenyl)-3-dimethylamino-4-methoxybenzamide] | 510 ± 38 | 12 | 16 | 10 |  | 7.0 | 
8 | 64 | 37 ± 1.9 | 37 ± 1.2 | 44 ± 1 | 147 to 148 |  |  | CNc1cc(C(=O)Nc2cc(OC)c(OC)c(OC)c2)ccc1OC [Compound 3c, 4-Methoxy-3-methylamino-N-(3,4,5-trimethoxyphenyl)benzamide] | 280 ± 5.9 | 7.5 | 7.5 | 6.2 |  | 4.3 | 
9 | 320 ± 32 | > 560 | 190 | 190 | 120 to 122 |  |  | COc1ccc(C(=O)Nc2cc(OC)c(OC)c(OC)c2)cc1N(C)C [Compound 3d, 3-Dimethylamino-4-methoxy-N-(3,4,5-trimethoxyphenyl)benzamide] | >560 |  | >3.0 | >3.0 |  | >1.7 | 
10 | > 78 | 34 ± 4.6 | ~15 | 45 | 121 to 123 | 20 ± 1.2 |  | CCCNc1cc(C(=O)Nc2ccccc2)ccc1OC [Compound 3e, 4-Methoxy-N-phenyl-3-(propylamino)benzamide] | 410 ± 22 | 12 | 20 | 9.0 |  |  | 
11 | > 70 | > 70 | > 70 | > 70 | 168 to 171 |  |  | CCCNc1cc(C(=O)Nc2ccc(Cl)cc2)ccc1OC [Compound 3f, N-(4-Chlorophenyl)-4-methoxy-3-propylaminobenzamide] | 120 |  |  |  |  |  | 
12 | > 75 | 58 ± 4.9 | 96 ± 10 | 45 ± 10 |  |  |  | CCC(=O)Nc1cc(C(=O)Nc2ccccc2)ccc1OC [Compound 5a] | >670 | >12 | >7.0 |  |  |  | 
13 | 38 ± 2.9 | 39 ± 1.9 | 22 ± 2.9 | > 67 | 130 to 132 |  |  | CCC(=O)Nc1cc(C(=O)Nc2ccc(Cl)cc2)ccc1OC [Compound 5b, N-(4-Chlorophenyl)-4-methoxy-3-propionamidobenzamide] | >600 | >16 | >27 |  |  | > 16 | 
14 | ~15 | ~15 | ~15 | 34 |  | 8.4 ± 1.2 | 20 ± 3.1 | CCC(=O)Nc1cc(C(=O)Nc2ccc(Br)cc2)ccc1OC [Compound 5c] | 530 ± 0.0 | 27 | 63 | 16 | 16–63 | 47 | 11 ± 0.8
15 | 190 ± 12 | 44 ± 3.7 | 65 | 53 ± 2.4 | 139 to 141 |  |  | CCC(=O)Oc1cc(C(=O)N(C)c2ccc(Cl)cc2)ccc1OC [Compound 5d, N-(4-Chlorophenyl)-N-methyl-4-methoxy-3-propionyloxybenzamide] | 280 ± 21 | 6.2 | 4.3 | 5.2 |  | 1.4 | 

Row | SMILES | IC50 ([1]; Enterovirus A, Vero) [µM] | IC50 ([2]; Enterovirus A, Vero) [µM] | IC50 ([3]; Enterovirus A, Vero) [µM] | IC50 [4] [µM] | melting point [°C] | IC50 [3] [µM] | IC50 [2] [µM] | TC50 (Vero cells) [µM] | SI JS-52-3 [2] | SI H [3] | SI BrCr [4] | selectivity index (SI) values (range over strains) [5] | SI SZ-98 [1] | IC50 [1] [µM]
16 | COc1ccc(C(=O)Nc2ccc(Cl)cc2)cc1OC(C)=O [Compound 5e, N-(4-Chlorophenyl)-4-methoxy-3-acetoxybenzamide] | ~15 | 32 ± 3.6 | 22 ± 4.7 | 32 ± 3.9 | 177 to 179 |  |  | 470 ± 22 | 14 | 21 | 15 |  | 37 | 13 ± 2.4
17 | COc1ccc(C(=O)Nc2ccccc2)cc1OC(C)=O [Compound 5f, 4-Methoxy-N-phenyl-3-acetoxybenzamide] | 90 ± 11 | 98 ± 4.7 | 47 ± 6.1 | 95 ± 9 | 153 to 155 |  |  | 360 ± 39 | 3.7 | 7.6 | 3.8 |  | 4.0 | 
